Test results as given in US9771357B2, “ALXR agonist compound” (ONO PHARMACEUTICAL CO., LTD., priority 2013, dated 2017).

The compounds below were run against T1, ALXR (Homo sapiens, UniProt P25090) (assay: IP1 (Inositol Monophosphate) Assay). Conditions: ALXR/Gα16 expression CHO-K1 cell strain; 3 μM.
T1 construct: expressed in transfected cells; host or cells: CHO-K1
T1 sequence (P25090 1-351): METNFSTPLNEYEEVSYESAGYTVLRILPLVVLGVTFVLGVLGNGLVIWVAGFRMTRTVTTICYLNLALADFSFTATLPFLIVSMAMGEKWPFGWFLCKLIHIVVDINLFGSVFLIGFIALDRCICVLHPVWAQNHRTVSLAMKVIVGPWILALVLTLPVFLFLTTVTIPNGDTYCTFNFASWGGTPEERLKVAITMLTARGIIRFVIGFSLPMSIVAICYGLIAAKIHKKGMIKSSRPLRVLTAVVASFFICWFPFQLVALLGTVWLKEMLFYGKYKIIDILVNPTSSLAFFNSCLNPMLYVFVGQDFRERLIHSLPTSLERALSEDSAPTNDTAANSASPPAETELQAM
Type: cell-based
Method: IP1 (Inositol Monophosphate) Assay
An ALXR/Gα16 expression CHO-K1 cell strain having 3×10^4 cells/100 μL was seeded on a 96-well plate using an F-12 culture medium (10% FBS, 100 μmol/L nonessential amino acid, 100 U/mL penicillin, 100 μg/mL streptomycin, 0.25 μg/mL Amphotericin B, 400 μg/mL Geneticin, and 5 μg/mL Puromycin), and cultured at 37° C. in 5% CO2 overnight. After the culture supernatant was removed, a 70-μL Basal buffer (10 mmol/L HEPES, 1 mmol/L CaCl2, 0.5 mmol/L MgCl2, 4.2 mmol/L KCl, 146 mmol/L NaCl, 5.5 mmol/L glucose, 50 mmol/L LiCl), each buffer containing one of the compounds and the reference example compound, was added. Here, as the medium group, a Basal buffer containing 1% DMSO was used. After the cell strain was further cultured at 37° C. in 5% CO2 for 30 minutes, IP1-d2 conjugate (Cisbio) and Anti-IP1 cryptate Tb conjugate (Cisbio) diluted with Lysis buffer (Cisbio) were each added in an amount of 15 μL. The culture was allowed to stand for 1 hour under shaded conditions at room temperature. Subsequently, using EnVision (PerkinElmer), measurement was performed at an excitation wavelength of 320 nm and fluorescence wavelengths of 620 nm and 665 nm, and the fluorescence ratio 665 nm/620 nm was calculated. With respect to the IP1 concentration, a calibration curve was produced using an IP1 calibrator (Cisbio) to be converted into concentration. The measured values were analyzed using XLfit (IDBS).

Compound | enhancement of IP1 concentration as compared with the medium group
O=C(Nc1cccnc1)N1CCC(c2nc(-c3ccccc3)cs2)CC1 [Reference Example Compound, 4-(4-Phenyl-1,3-thiazol-2-yl)-N-(3-pyridyl)-1-piperidinecarboxamide, reference compound] | no enhancement was seen

Same assay, conditions: compound at 3 μM; ALXR/Gα16 expression CHO-K1 cell strain; 30 minutes; medium group 293.6

Compound | IP1 Concentration [nmol/L]
Cc1sc(C2(O)CCN(C(=O)Nc3ccc(C(F)(F)F)cc3)CC2)nc1-c1cccc(F)c1 [27(1), 4-[4-(3-Fluorophenyl)-5-methyl-1,3-thiazol-2-yl]-4-hydroxy-N-[4-(trifluoromethyl)phenyl]-1-piperidinecarboxamide] | 539.3
Cc1sc(C2CCN(C(=O)Nc3ccc(C(F)(F)F)cc3)CC2)nc1-c1cccc(F)c1 [29(2)] | 853.7
O=C(Nc1ccc(C(F)(F)F)cc1)N1CCC(c2nc(-c3cccnc3)cs2)CC1 [Example 40, 4-[4-(3-Pyridyl)-1,3-thiazol-2-yl]-N-[4-(trifluoromethyl)phenyl]-1-piperidinecarboxamide] | 789.9
Cc1sc(C2(NS(C)(=O)=O)CCN(C(=O)Nc3ccc(C(F)(F)F)cc3)CC2)nc1-c1ccccc1 [Example 51, 4-(5-Methyl-4-phenyl-1,3-thiazol-2-yl)-4-[(methylsulfonyl)amino]-N-[4-(trifluoromethyl)phenyl]-1-piperidinecarboxamide] | 592.1
N#Cc1sc(C2CCN(C(=O)Nc3ccc(C(F)(F)F)cc3)CC2)nc1-c1ccccc1 [Example 60, 4-(5-Cyano-4-phenyl-1,3-thiazol-2-yl)-N-[4-(trifluoromethyl)phenyl]-1-piperidinecarboxamide] | 1020.9
O=C(Nc1cccnc1)N1CCC(c2nc(-c3ccccc3)cs2)CC1 [Reference Example Compound, 4-(4-Phenyl-1,3-thiazol-2-yl)-N-(3-pyridyl)-1-piperidinecarboxamide, reference compound] | 282.5
